# System: human hepatoma Huh-7 cell line harboring a HCV replicon
# Experiment: HCV replicon assay (inhibition of viral replication, luciferase)
# Format: cell-based
# Conditions: Hepatitis C virus, 72 h; 2 μM; Huh-7 HCV replicon cells, 3 days incubation; inhibition of viral replication; read-out: % inhibition at 2 μM
# Experimental: The anti-HCV activity of the compounds of this invention was tested in a human hepatoma Huh-7 cell line harboring a HCV replicon. The assay comprised the following steps:
# Step 1: Compound Preparation and Serial Dilution.
# Serial dilution was performed in 100% DMSO in a 384-well plate. A solution containing a compound at 225-fold concentration of the starting final serial dilution concentration was prepared in 100% DMSO and 15 uL added to the pre-specified wells in column 3 or 13 of a polypropylene 384-well plate. The rest of the 384-well plate was filled with 10 uL 100% DMSO except for columns 23 and 24, where 10 uL of 500 uM a HCV protease inhibitor (ITMN-191) in 100% DMSO was added. The HCV protease inhibitor was used a control of 100% inhibition of HCV replication. The plate was then placed on a Biomek FX Workstation to start the serial dilution. The serial dilution was performed for ten cycles of 3-fold dilution from column 3 to 12 or from column 13 to 22.
# Step 2: Cell Culture Plate Preparation and Compound Addition
# To each well of a black polypropylene 384-well plate, 90 μL of cell media containing 1600 suspended Huh-7 HCV replicon cells was added with a Biotek uFlow Workstation. A volume of 0.4 μL of the compound solution was transferred from the serial dilution plate to the cell culture plate on a Biomek FX Workstation. The DMSO concentration in the final assay condition was 0.44%. The plates were incubated for 3 days at 37° C. with 5% CO2 and 85% humidity.
# Step 3: Detection of Cytotoxicity and Inhibition of Viral Replication
# a) Assessment of cytotoxicity: The media in the 384-well cell culture plate was aspirated with a Biotek EL405 plate-washer. A volume of 50 μL of a solution containing 400 nM Calcein AM in 100% PBS was added to each well of the plate with a Biotek uFlow Workstation. The plate was incubated for 30 minutes at room temperature before the fluorescence signal ([…]) was measured with a Perkin Elmer Envision Plate Reader.
# b) Assessment of inhibition of viral replication: The calcein-PBS solution in the 384-well cell culture plate was aspirated with a Biotek EL405 plate-washer. A volume of 20 μL of Dual-Glo luciferase buffer (Promega, Dual-Glo Luciferase Assay Reagent, cat. #E298B) was added to each well of the plate with a Biotek uFlow Workstation. The plate was incubated for 10 minutes at room temperature. A volume of 20 μL of a solution containing 1:100 mixture of Dual-Glo Stop & Glo substrate(Promega, Dual-Glo Luciferase Assay Reagent, cat. #E313B) and Dual-Glo Stop & Glo buffer (Promega, Dual-Glo Luciferase Assay Reagent, cat. #E314B) was then added to each well of the plate with a Biotek uFlow Workstation. The plate was incubated at room temperature for 10 minutes before the luminescence signal was measured with a Perkin Elmer Envision Plate Reader.
# The percent cytotoxicity was determined by calcein AM conversion to fluorescent product. The average fluorescent signal from the DMSO control wells were defined as 100% nontoxic. The individual fluorescent signal from testing compound treated well was divided by the average signal from DMSO control wells and then multiplied by 100% to get the percent viability. The percent anti-HCV replication activity was determined by the luminescence signal from the testing well compared to DMSO controls wells. The background signal was determined by the average luminescence signal from the HCV protease inhibitor treated wells and was subtracted from the signal from the testing wells as well as the DMSO control wells. Following 3-fold serial dilutions, the EC50 and CC50 values were calculated by fitting % inhibition at each concentration to the following equation: % inhibition=100%[(EC50/[l])^b+1]
# Where b is Hill's coefficient. See, for reference, Hill, A. V., The Possible Effects of the Aggregation of the Molecules of Hæmoglobin on its Dissociation Curves, J. Physiol. 40: iv-vii. (1910). […]
row,SMILES,inhibition at 2 µM
1,"CC(C)(C)C#Cc1cc(N(C(=O)[C@H]2CC[C@H](C)CC2)[C@H]2CCN(C(=O)OC3(C)CCN(C(=O)OC(C)(C)C)C3)C2)c(C(=O)O)s1 (stereo in doubt) [Compound 67, 3-(S)-{3-[[2-Carboxy-5-(3,3-dimethyl-but-1-ynyl)-thiophene-3-yl](trans-4-methyl-cyclohexanecarbonyl)-amino]-pyrrolidine-1-carbonyloxy}-3-methyl-pyrrolidine-1-carboxylic acid tert-butyl ester]",99%
2,"CC(C)(C)C#Cc1cc(N(C(=O)[C@H]2CC[C@H](C)CC2)C2CCN(C(=O)OC3CCNCC3)CC2)c(C(=O)O)s1 [Compound 31, 4-[[2-carboxy-5-(3,3-dimethyl-but-1-ynyl)-thiophen-3-yl]-(4-trans-methyl-cyclohexanecarbonyl)-amino]-piperidine-1-carboxylic acid piperidin-4-yl ester]",93.1%
3,"CC(C)(C)C#Cc1cc(N(C(=O)[C@H]2CC[C@H](C)CC2)C2CCC(NC(=O)OC3CCOCC3)CC2)c(C(=O)O)s1 (stereo partly drawn) [Compound 32, 5-(3,3-dimethyl-but-1-ynyl)-3-{(4-trans-methyl-cyclohexanecarbonyl)-[4-(tetrahydro-pyran-4-yloxycarbonylamino)-cyclohexyl]-amino}-thiophene-2-carboxylic acid]",100%
4,"CC(C)(C)C#Cc1cc(N(C(=O)[C@H]2CC[C@H](C)CC2)[C@H]2CCN(C(=O)O[C@@H]3CNC(=O)C3)C2)c(C(=O)O)s1 [Compound 33, 3-(S)-[[2-carboxy-5-(3,3-dimethyl-but-1-ynyl)-thiophen-3-yl]-(4-trans-methyl-cyclohexanecarbonyl)-amino]-pyrrolidine-1-carboxylic acid 5-oxo-pyrrolidin-3-(S)-yl ester]",96.2%
5,"CC(C)(C)C#Cc1cc(N(C(=O)[C@H]2CC[C@H](C)CC2)[C@H]2CCN(C(=O)O[C@H]3CNC(=O)C3)C2)c(C(=O)O)s1 [Compound 34, 3-(S)-[[2-carboxy-5-(3,3-dimethyl-but-1-ynyl)-thiophen-3-yl]-(4-trans-methyl-cyclohexanecarbonyl)-amino]-pyrrolidine-1-carboxylic acid 5-oxo-pyrrolidin-3-(R)-yl ester]",97.8%
6,"CC(C)(C)C#Cc1cc(N(C(=O)[C@H]2CC[C@H](C)CC2)[C@H]2CCN(C(=O)O[C@H]3CO[C@H]4OCC[C@H]43)C2)c(C(=O)O)s1 [Compound 35, 3-(S)-[[2-Carboxy-5-(3,3-dimethyl-but-1-ynyl)-thiophen-3-yl]-(4-methyl-cyclohexanecarbonyl)-amino]-pyrrolidine-1-carboxylic acid hexahydro-furo[2,3-b]furan-3-(R)-yl ester]",99.8%
7,"CC(C)(C)C#Cc1cc(N(C(=O)[C@H]2CC[C@H](C)CC2)C2CCN(C(=O)O[C@H]3CO[C@H]4OCC[C@H]43)CC2)c(C(=O)O)s1 [Compound 36, 4-[[2-carboxy-5-(3,3-dimethyl-but-1-ynyl)-thiophen-3-yl]-(4-methyl-cyclohexanecarbonyl)-amino]-piperidine-1-carboxylic acid hexahydro-furo[2,3-b]furan-3-(R)-yl ester]",100%
8,"CC(C)(C)C#Cc1cc(N(C(=O)[C@H]2CC[C@H](C)CC2)[C@H]2CCN(C(=O)O[C@@H]3CCCN(C(=O)OC(C)(C)C)C3)C2)c(C(=O)O)s1 [Compound 37, 3-(R)-{3-(S)-[[2-carboxy-5-(3,3-dimethyl-but-1-ynyl)-thiophen-3-yl]-(4-trans-methyl-cyclohexanecarbonyl)-amino]-pyrrolidine-1-carbonyloxy}-piperidine-1-carboxylic acid tert-butyl ester]",99.6%
9,"CC(C)(C)C#Cc1cc(N(C(=O)[C@H]2CC[C@H](C)CC2)[C@H]2CCN(C(=O)O[C@@H]3CCCNC3)C2)c(C(=O)O)s1 [Compound 38, 3-(S)-[[2-carboxy-5-(3,3-dimethyl-but-1-ynyl)-thiophen-3-yl]-(4-trans-methyl-cyclohexanecarbonyl)-amino]-pyrrolidine-1-carboxylic acid piperidin-3-(R)-yl ester]",99.6%
10,"CC(C)(C)C#Cc1cc(N(C(=O)[C@H]2CC[C@H](C)CC2)[C@H]2CCN(C(=O)OC3CCN(C(=O)OC(C)(C)C)CC3)C2)c(C(=O)O)s1 [Compound 39, 4-{3-(S)-[[2-carboxy-5-(3,3-dimethyl-but-1-ynyl)-thiophen-3-yl]-(4-trans-methyl-cyclohexanecarbonyl)-amino]-pyrrolidine-1-carbonyloxy}-piperidine-1-carboxylic acid tert-butyl ester]",98.8%
11,"CC(C)(C)C#Cc1cc(N(C(=O)[C@H]2CC[C@H](C)CC2)[C@H]2CCN(C(=O)OC3CCNCC3)C2)c(C(=O)O)s1 [Compound 40, 3-(S)-[[2-carboxy-5-(3,3-dimethyl-but-1-ynyl)-thiophen-3-yl]-(4-trans-methyl-cyclohexanecarbonyl)-amino]-pyrrolidine-1-carboxylic acid piperidin-4-yl ester]",98.6%
12,"CC(C)(C)C#Cc1cc(N(C(=O)[C@H]2CC[C@H](C)CC2)[C@H]2CCN(C(=O)OC3CCOCC3)C2)c(C(=O)O)s1 [Compound 41, 3-(S)-[[2-carboxy-5-(3,3-dimethyl-but-1-ynyl)-thiophen-3-yl]-(4-trans-methyl-cyclohexanecarbonyl)-amino]-pyrrolidine-1-carboxylic acid tetrahydro-pyran-4-yl ester]",99.9%
13,"CC(C)(C)C#Cc1cc(N(C(=O)[C@H]2CC[C@H](C)CC2)[C@H]2CCN(C(=O)O[C@@H]3CCOC3)C2)c(C(=O)O)s1 [Compound 42, 3-(S)-[[2-carboxy-5-(3,3-dimethyl-but-1-ynyl)-thiophen-3-yl]-(4-trans-methyl-cyclohexanecarbonyl)-amino]-pyrrolidine-1-carboxylic acid tetrahydro-furan-3-(R)-yl ester]",99.9%
14,"CC(C)(C)C#Cc1cc(N(C(=O)[C@H]2CC[C@H](C)CC2)[C@H]2CCN(C(=O)O[C@H]3CCNC3=O)C2)c(C(=O)O)s1 [Compound 43, 3-(S)-[[2-carboxy-5-(3,3-dimethyl-but-1-ynyl)-thiophen-3-yl]-(4-trans-methyl-cyclohexanecarbonyl)-amino]-pyrrolidine-1-carboxylic acid 2-oxo-pyrrolidin-3-(R)-yl ester]",96.2%
15,"CC(C)(C)C#Cc1cc(N(C(=O)[C@H]2CC[C@H](C)CC2)C2CCC(NC(=O)OC3CCN(C(=O)OC(C)(C)C)CC3)CC2)c(C(=O)O)s1 (stereo partly drawn) [Compound 44, 4-{4-[[2-carboxy-5-(3,3-dimethyl-but-1-ynyl)-thiophen-3-yl]-(4-trans-methyl-cyclohexanecarbonyl)-amino]-cyclohexylcarbamoyloxy}-piperidine-1-carboxylic acid tert-butyl ester]",100%
16,"CC(C)(C)C#Cc1cc(N(C(=O)[C@H]2CC[C@H](C)CC2)C2CCC(NC(=O)OC3CCNCC3)CC2)c(C(=O)O)s1 (stereo partly drawn) [Compound 45, 5-(3,3-dimethyl-but-1-ynyl)-3-{(4-trans-methyl-cyclohexanecarbonyl)-[4-(piperidin-4-yloxycarbonylamino)-cyclohexyl]-amino}-thiophene-2-carboxylic acid]",100%
17,"CC(C)(C)C#Cc1cc(N(C(=O)[C@H]2CC[C@H](C)CC2)C2CCC(NC(=O)O[C@@H]3CCCN(C(=O)OC(C)(C)C)C3)CC2)c(C(=O)O)s1 (stereo partly drawn) [Compound 46, 3-(R)-{4-[[2-carboxy-5-(3,3-dimethyl-but-1-ynyl)-thiophen-3-yl]-(4-trans-methyl-cyclohexanecarbonyl)-amino]-cyclohexylcarbamoyloxy}-piperidine-1-carboxylic acid tert-butyl ester]",97%
